Measured values as given in patent US20230416836A1, “METHOD FOR PREDICTING RESPONSIVENESS TO PLK1 INHIBITION” (National University of Singapore, priority 2020, published 2023).
Entries after “also recorded” stand apart in the source; their conditions may differ.

What was measured:
[1] = system: MCF10A ARID1A KO cells; assay: cell survival screen with clinically applicable kinase inhibitors; format: cell-based; details: MCF10A system, ARID1A KO vs WT, ratios of Z-scores
Excerpt: FIG. 2: Generation of ARID1A KO cells in (A) GES1, (B) MCF10A, (C) OVCAR3, (D) Ratios of Z-scores, showing hits from preliminary FDA approved kinase inhibitor screen.
ARID1A Knockout (KO) cell lines were generated using CRISPR-Cas9 gene editing in multiple cellular contexts where ARID1A is lost-Gastric (GES1), Breast (MCF10A), and Ovarian (OVCAR3) (FIG. 2 A-C).

[2] = system: GES1 ARID1A WT and KO cells; assay: Cell titre blue assay in GES1 ARID1A WT and KO cells; format: cell-based; details: GES1 ARID1A WT vs KO
Excerpt: (§1) This synthetic lethal interaction was validated using Volasertib in multiple isogenic ARID1A WT and KO cell lines, using cell proliferation and colony formation assays (FIG. 3 A-E).

[3] = system: MCF10A ARID1A WT and KO cells; assay: Cell titre blue assay in MCF10A ARID1A WT and KO cells; format: cell-based; details: MCF10A ARID1A WT vs KO
Excerpt: as §1

[4] = system: GES1 ARID1A-WT and KO cells; assay: colony formation assay in GES1 ARID1A-WT and KO cells; format: cell-based; details: GES1 ARID1A-WT vs KO
Excerpt: as §1

[5] = system: OVCAR3 ARID1A WT and KO cells; assay: Cell proliferation assays in OVCAR3 cells; format: cell-based; details: OVCAR3 ARID1A WT vs KO
Excerpt: as §1

[6] = system: OVCAR3-ARID1A KO xenografts; assay: mouse xenograft experiments with OVCAR3-ARID1A WT or KO cells; format: in vivo; details: Nude (SCID) mice, 15 mg/kg body weight once per week for 4 weeks
Experimental: Nude (SCID) mice received sub-cutaneous injections of OVCAR3-ARID1A WT or KO cells. Tumors were visible 10 days post injection, after which the animals were treated with Volasertib (15 mg/kg body weight) or vehicle once per week for 4 weeks. Body mass and tumor volumes were recorded twice per week. Mice were sacrificed at the end of 4 weeks of treatment and tumors were isolated and imaged, (B) Body mass measurements of mice measured twice per week, (C) Tumor volume measurements of mice measured twice per week, p<0.05, student's t-test, (D) Images of OVCAR3-ARID1A WT/KO tumors isolated from mice after sacrifice, (E) Dot plot of tumor area from D showing changes in tumor area in OVCAR3-ARID1A KO vs OVCAR3-ARID1A KO+volasertib treatment. Tumor area was calculated from the images in image J using the ruler to set scale and applying free hand tool to measure the tumor area.
as §1

[7] = system: GES1 ARID1A WT and KO cells; assay: mitochondrial depolarization measured using JC-1; format: cell-based; details: post treatment
Excerpt: (§2) HSC70 was used as loading control.

[8] = system: GES1 ARID1A-WT and KO cells; assay: Annexin-V staining (apoptosis); format: cell-based
Excerpt: as §2

[9] = system: GES1 cells; assay: Western blots of cleaved PARP in GES1 cells; format: cell-based; details: GES1 whole cell lysates, indicated time points
Excerpt: as §2

[10] = system: OVCAR3 cells; assay: Western blots of cleaved PARP in OVCAR3 cells; format: cell-based; details: OVCAR3 whole cell lysates, indicated time points
Excerpt: as §2

[11] = system: GES1-ARID1A isogenic cell lines; assay: metabolomics by 1D NMR; format: cell-based; details: GES1-ARID1A WT and KO
Excerpt: (B) Heat map of important metabolites up/down regulated in GES1-ARID1A WT and KO with and without volasertib treatment, as measured by 1D NMR.
In addition, ARID1A loss causes a dramatic alteration in transcriptome leading to up or down regulation of many important biological pathways (FIG. 6).

[12] = system: cancer; details: Phase II clinical trials; cited from earlier work

Row | Structure (SMILES) | sensitivity of cells with loss of ARID1A in cell survival screen [1] | synthetic lethality, cell titre blue assay [2] | synthetic lethality, cell titre blue assay [3] | synthetic lethality, colony formation assay [4] | synthetic lethality, cell proliferation assays [5] | anti-tumor activity on xenografts (tumor volume, tumor area) [6] | anti-tumor activity on xenografts (tumor volume, tumor area) ([6]; 15 mg/kg) | mitochondrial depolarization (JC-1) [7] | apoptosis and cell killing ([8]; ARID1A KO cells) | apoptosis, Annexin-V positive cells ([8]; GES1 ARID1A-KO cells, post treatment) | cleaved PARP accumulation [9] | cleaved PARP accumulation [10] | changes in metabolic intermediates / metabolomics [11] | clinical result as monotherapy [12]
1 | COc1cc(C(=O)NC2CCN(C)CC2)c(F)cc1Nc1ncc2c(n1)N(C1CCCC1)CC(F)(F)C(=O)N2C [TAK960] | preferentially sensitivity | – | – | – | – | – | – | – | – | – | – | – | – | –
2 | CC[C@@H]1C(=O)N(C)c2cnc(Nc3ccc(C(=O)N[C@H]4CC[C@H](N5CCN(CC6CC6)CC5)CC4)cc3OC)nc2N1C(C)C [Volasertib] | – | synthetic lethality between ARID1A loss and Volasertib | synthetic lethality between ARID1A loss and Volasertib | synthetic lethality between ARID1A loss and Volasertib | synthetic lethality between ARID1A loss and Volasertib | Anti-tumor activity | synthetically lethal relationship was also demonstrated | markedly increases mitochondrial depolarization; also recorded: increased depolarization post Volasertib treatment in a time dependent manner | selective cell killing in ARID1A KO cells | further increase post Volasertib treatment | increased accumulation of cleaved PARP | increased accumulation of cleaved PARP | profound changes in the metabolomics; also recorded: exacerbated upon volasertib treatment | encouraging results as monotherapy
